Source: the NIST ThermoML archive (doi:10.1021/je700438d)
Numbers after ± are expanded uncertainties.

Assay: mn = molality of the nth substance listed, in mol/kg
Details: Liquid, Vibrating tube method

[Cl-].[Li+] [lithium chloride] + CCO
mass density (348.15 K, 20090 kPa, m1 = 0.3023): 772.2 ± 0.49 kg/m3
mass density (348.15 K, 20140 kPa, m1 = 1.222): 800.25 ± 0.47 kg/m3
mass density (348.15 K, 20480 kPa, m1 = 0.5873): 781.78 ± 0.49 kg/m3
mass density (348.15 K, 25070 kPa, m1 = 1.222): 804.33 ± 0.49 kg/m3
mass density (348.15 K, 25320 kPa, m1 = 0.5873): 786.04 ± 0.5 kg/m3
mass density (348.15 K, 25420 kPa, m1 = 2.022): 826.11 ± 0.48 kg/m3
mass density (348.15 K, 25640 kPa, m1 = 2.88): 846.96 ± 0.46 kg/m3
mass density (348.15 K, 25840 kPa, m1 = 0.1049): 770.86 ± 0.52 kg/m3
mass density (348.15 K, 25860 kPa, m1 = 0.3023): 777.45 ± 0.51 kg/m3
mass density (348.15 K, 30060 kPa, m1 = 0.3023): 781.03 ± 0.53 kg/m3
mass density (348.15 K, 30160 kPa, m1 = 2.022): 829.46 ± 0.49 kg/m3
mass density (348.15 K, 30410 kPa, m1 = 1.222): 808.41 ± 0.51 kg/m3
mass density (348.15 K, 30610 kPa, m1 = 0.5873): 790.37 ± 0.53 kg/m3
mass density (348.15 K, 30710 kPa, m1 = 0.1049): 775.12 ± 0.54 kg/m3
mass density (348.15 K, 30840 kPa, m1 = 2.88): 850.58 ± 0.48 kg/m3
mass density (348.15 K, 35190 kPa, m1 = 2.88): 853.39 ± 0.49 kg/m3
mass density (348.15 K, 35240 kPa, m1 = 0.1049): 778.84 ± 0.56 kg/m3
mass density (348.15 K, 35420 kPa, m1 = 1.222): 811.91 ± 0.53 kg/m3
mass density (348.15 K, 35610 kPa, m1 = 2.022): 832.94 ± 0.51 kg/m3
mass density (348.15 K, 35840 kPa, m1 = 0.3023): 785.62 ± 0.56 kg/m3
mass density (348.15 K, 35840 kPa, m1 = 0.5873): 794.33 ± 0.55 kg/m3
mass density (348.15 K, 39860 kPa, m1 = 0.5873): 797.14 ± 0.57 kg/m3
mass density (348.15 K, 39860 kPa, m1 = 2.88): 856.19 ± 0.5 kg/m3
mass density (348.15 K, 39930 kPa, m1 = 0.1049): 782.45 ± 0.59 kg/m3
mass density (348.15 K, 39940 kPa, m1 = 0.3023): 788.64 ± 0.58 kg/m3
mass density (348.15 K, 39960 kPa, m1 = 2.022): 835.44 ± 0.52 kg/m3
mass density (348.15 K, 39970 kPa, m1 = 1.222): 814.81 ± 0.54 kg/m3
mass density (373.15 K, 290 kPa, m1 = 0.1049): 717.74 ± 0.43 kg/m3
mass density (373.15 K, 310 kPa, m1 = 0.3023): 725.29 ± 0.43 kg/m3
mass density (373.15 K, 320 kPa, m1 = 2.022): 781.71 ± 0.42 kg/m3
mass density (373.15 K, 840 kPa, m1 = 1.222): 757.56 ± 0.42 kg/m3
mass density (373.15 K, 960 kPa, m1 = 0.5873): 736.55 ± 0.43 kg/m3
mass density (373.15 K, 980 kPa, m1 = 2.88): 805.91 ± 0.42 kg/m3
mass density (373.15 K, 5060 kPa, m1 = 0.3023): 731.82 ± 0.44 kg/m3
mass density (373.15 K, 5060 kPa, m1 = 1.222): 762.98 ± 0.43 kg/m3
mass density (373.15 K, 5140 kPa, m1 = 0.1049): 724.52 ± 0.44 kg/m3
mass density (373.15 K, 5140 kPa, m1 = 2.88): 810.39 ± 0.43 kg/m3
mass density (373.15 K, 5420 kPa, m1 = 0.5873): 742.51 ± 0.44 kg/m3
mass density (373.15 K, 5860 kPa, m1 = 2.022): 788.43 ± 0.43 kg/m3
mass density (373.15 K, 9980 kPa, m1 = 2.88): 815.52 ± 0.44 kg/m3
mass density (373.15 K, 10060 kPa, m1 = 1.222): 769.02 ± 0.45 kg/m3
mass density (373.15 K, 10070 kPa, m1 = 0.3023): 738.32 ± 0.46 kg/m3
mass density (373.15 K, 10080 kPa, m1 = 0.1049): 731.05 ± 0.46 kg/m3
mass density (373.15 K, 10090 kPa, m1 = 0.5873): 748.41 ± 0.46 kg/m3
mass density (373.15 K, 10090 kPa, m1 = 2.022): 793.18 ± 0.44 kg/m3
mass density (373.15 K, 14620 kPa, m1 = 2.88): 819.69 ± 0.45 kg/m3
mass density (373.15 K, 15020 kPa, m1 = 0.3023): 744.36 ± 0.48 kg/m3
mass density (373.15 K, 15420 kPa, m1 = 0.1049): 737.69 ± 0.49 kg/m3
mass density (373.15 K, 15720 kPa, m1 = 2.022): 799 ± 0.46 kg/m3
mass density (373.15 K, 15740 kPa, m1 = 1.222): 775.35 ± 0.47 kg/m3
mass density (373.15 K, 15850 kPa, m1 = 0.5873): 755.19 ± 0.48 kg/m3
mass density (373.15 K, 20080 kPa, m1 = 0.1049): 743.13 ± 0.51 kg/m3
mass density (373.15 K, 20090 kPa, m1 = 0.5873): 759.84 ± 0.5 kg/m3
mass density (373.15 K, 20310 kPa, m1 = 0.3023): 750.38 ± 0.51 kg/m3
mass density (373.15 K, 20310 kPa, m1 = 2.022): 803.31 ± 0.47 kg/m3
mass density (373.15 K, 20340 kPa, m1 = 1.222): 780.06 ± 0.49 kg/m3
mass density (373.15 K, 21420 kPa, m1 = 2.88): 825.53 ± 0.46 kg/m3
mass density (373.15 K, 24940 kPa, m1 = 2.88): 828.37 ± 0.47 kg/m3
mass density (373.15 K, 25050 kPa, m1 = 2.022): 807.37 ± 0.49 kg/m3
mass density (373.15 K, 25080 kPa, m1 = 1.222): 784.55 ± 0.5 kg/m3
mass density (373.15 K, 25410 kPa, m1 = 0.1049): 748.94 ± 0.54 kg/m3
mass density (373.15 K, 25410 kPa, m1 = 0.3023): 755.77 ± 0.53 kg/m3
mass density (373.15 K, 25840 kPa, m1 = 0.5873): 765.68 ± 0.52 kg/m3
mass density (373.15 K, 30060 kPa, m1 = 0.3023): 760.33 ± 0.55 kg/m3
mass density (373.15 K, 30060 kPa, m1 = 2.022): 811.2 ± 0.51 kg/m3
mass density (373.15 K, 30150 kPa, m1 = 0.5873): 769.7 ± 0.54 kg/m3
mass density (373.15 K, 30150 kPa, m1 = 2.88): 832.41 ± 0.49 kg/m3
